The assay deals with Plasmodium falciparum. The assay is described as follows: GSK_TCMDC: Inhibition of Plasmodium falciparum 3D7 in whole erythrocytes, using parasite LDH activity as an index of growth. To be noted: Plasmodium falciparum, 3D7. It counts as functional, organism-based.
The compound `O=[N+]([O-])c1ccccc1/C=N/Nc1ccnc2ccc(C(F)(F)F)cc12` registered an XC50 of 710 nM.

Compound `Cc1cc(N/N=C/c2cccc([N+](=O)[O-])c2)c2ccc(F)cc2n1` gave an XC50 of 690 nM.

For `Cc1nc(O)c2c(ccc3ccc(CN(C)c4ccc(C(=O)N[C@@H](CCC(=O)O)C(=O)O)cc4)cc32)n1`, the XC50 was 879 nM.

In the case of `O=C(O)c1ccc(-c2c[nH]c3ncc(-c4ccc(Cl)cc4)cc23)cc1`, the XC50 was 726 nM.

On to `O=c1cc(NC[C@H]2CCC[C@@H]2NC2CCCc3c2[nH]c2ccccc32)[nH]c2ccccc12` (some centres undefined), for which the XC50 is 786 nM.

In turn, `CC(C)(C)c1ccc(OCC(=O)NC2CCN(c3ccnc4cc(Cl)ccc34)C2)cc1` (centres undefined) had an XC50 of 135 nM.

Compound `COc1ccc(-c2nc3cccnc3n2CC(=O)Nc2c(C)cc(C)cc2C)c(OC)c1` yielded an XC50 of 927 nM.

The compound `COc1ccccc1C1CC(c2ccc(Br)cc2)=NN1C(=O)c1ccccc1` (centres undefined) had an XC50 of 1110 nM.

In the case of `COc1cc(C)nc2ccc(NC(=O)c3cc(C(F)(F)F)cc(C(F)(F)F)c3)cc12`, the XC50 came to 912 nM.

Consider `Cc1cc(C(=O)Nc2ccc3c(c2)CCN3C2CCN(Cc3cccc(F)c3F)C2)no1` (centres undefined), for which the XC50 worked out at 583 nM.

On to `CSc1ccc(CN2CCC(NC(=O)c3ccc(-c4cccc(Cl)c4)s3)CC2)cc1`, for which the XC50 came to 1290 nM.

For the compound `Cn1nc(-c2ccccc2F)c2cc(C(=O)NC3CCN(Cc4ccccc4)CC3)sc21`, the XC50 is 789 nM.

Consider `O=S(=O)(Nc1cccc(CCN2CCCCC2CCN2CCCC2)c1)c1cccc2ccccc12` (centres undefined), for which the XC50 was determined as 819 nM.

`CC(=O)Nc1cccc(C(=O)Nc2cccc(-c3ccc(-c4nc5cc(C(F)(F)F)ccc5[nH]4)s3)c2)c1` returned an XC50 of 652 nM.

In turn, `CC1(C)CCC(=Cc2ccc(Cl)cc2)CC1(O)Cn1ccnc1` (centres undefined) gave an XC50 of 743 nM.

Take `Cc1cccc2nc(-c3cccc(-c4ccc(CNCc5ccccc5)cc4)c3)[nH]c12`: the XC50 is 148 nM.

The compound `COc1cc(Cc2cnc(N)nc2N)cc(OCCCCc2nnn[nH]2)c1OC` showed an XC50 of 286 nM.

For `CCCCCCCCCC(=O)NCC1CC(Br)=NO1` (centres undefined), the XC50 came to 1050 nM.

Take `CCCCCCn1c2c(c(=N)c3c1CCC3)CCC2`: the XC50 was determined as 178 nM.

The compound `C=CCOc1ccc(C2C(C(=O)OC)=C(C)NC3=C2C(=O)c2ccccc23)cc1OC` (centres undefined) showed an XC50 of 877 nM.

Consider `O=C(Nc1ccc(-c2cccc(-c3nc4cc(C(F)(F)F)ccc4[nH]3)c2)cc1)Nc1ccc(Cl)c(Cl)c1`, for which the XC50 was 746 nM.

As to `CN(Cc1cccc(O)c1)C1CCN(c2cc(NC(=O)c3cccc(F)c3)ccn2)CC1`, the XC50 was determined as 847 nM.

`CC1(C)NC(N)=NC(=N)N1OCc1cccc(Cl)c1Cl` gave an XC50 of 3.2 nM.

Turning to `Cc1cccc2nc(-c3cccc(-c4cccc(NC(=O)Nc5ccc(F)c(F)c5F)c4)c3)[nH]c12`, the XC50 turned out to be 108 nM.

On to `COc1ccc(NC(=O)Nc2ccc(-c3ccc(-c4nc5ccccc5[nH]4)cc3)cc2)cc1`, for which the XC50 turned out to be 509 nM.

`Cc1cc(NC(=O)NCCN2CCC(NS(=O)(=O)c3ccc(Br)cc3)C2)c2ccccc2n1` (centres undefined) gave an XC50 of 602 nM.

Turning to `CCCCCn1c(Sc2ccc(C#N)c([N+](=O)[O-])c2)nnc1-c1ccc(OC)cc1`, the XC50 amounted to 1140 nM.

As for `COc1ccc(CNCc2ccccc2)cc1-c1ccc(OC)c(S(=O)(=O)NCCN2CCCC2)c1`, the XC50 was determined as 827 nM.

In the case of `CCC(C)NS(=O)(=O)c1ccc2nc(Nc3ccc(C)c(Cl)c3)n([C@H](C)C(C)(C)C)c2c1` (some centres undefined), the XC50 was determined as 381 nM.

With `O=C(/C=C/c1ccc(Cl)c(Cl)c1)N1CCC(CN2CCC(Cc3nc4ccccc4[nH]3)CC2)CC1`, the XC50 is 254 nM.

`CCc1c(CCNCCCCCCNC(C)(C)Cc2ccc3c(c2CC)OCO3)ccc(OC)c1OC` registered an XC50 of 934 nM.

`Cc1ccc(NCC(=O)Nc2ccc(F)c(Cl)c2)cc1S(=O)(=O)N1CCOCC1` had an XC50 of 57.6 nM.

Compound `CN(Cc1cccc(F)c1)C1CCN(c2cc(NC(=O)c3cccc(F)c3)ccn2)CC1` showed an XC50 of 1160 nM.

The compound `COc1ccc(NC(=O)c2ccc(-c3nc(-c4ccc(Cl)cc4)cs3)cc2)cc1N1CCN(C)CC1` displayed an XC50 of 921 nM.

In turn, `CC(NC(C)c1cccc(Cl)c1)C(=O)Nc1cc(C(F)(F)F)ccc1N1CCOCC1` (centres undefined) came in with an XC50 of 1090 nM.

`CN(C)c1cccc2c(S(=O)(=O)Nc3cccc(CCN4CCC(N5CCCCC5)CC4)c3)cccc12` had an XC50 of 979 nM.

In the case of `CC[C@H](N/C(=N\c1ccc(-c2ccccc2)cc1)Nc1ccc(C#N)cc1O)c1ccccc1`, the XC50 amounted to 759 nM.

The compound `O=C(/C=C/c1ccc(Cl)c(Cl)c1)NCCCCCN1CCC(NC(=S)Nc2ccc(Cl)c(Cl)c2)CC1` gave an XC50 of 528 nM.

Take `COc1cc(OC)c(OC)cc1C=NN=c1cc(C)[nH]c2ccccc12`: the XC50 was found to be 299 nM.

As for `Cc1[nH]c(C)c(-c2ccc(OCc3ccccc3C(F)(F)F)nc2)c(=O)c1Br`, the XC50 turned out to be 16.4 nM.

As for `CCCCNC(c1ccc(Cl)cc1)C(O)c1ccc(Cl)cc1` (centres undefined), the XC50 is 619 nM.

In turn, `N#Cc1ccc(C(=O)Nc2cc(-c3cccc(O)c3)cc3[nH]ncc23)cc1` gave an XC50 of 1370 nM.

As to `CCCCCCCC1=NN2C(=N)C(=Cc3cc(Br)c(OCc4ccc(F)cc4)c(OCC)c3)C(=O)N=C2S1`, the XC50 amounted to 1050 nM.

As to `O=C(Nc1cc(F)cc(F)c1)NC1CCN(CCCCCNC(=O)C2CC2c2ccc(Cl)c(Cl)c2)CC1` (centres undefined), the XC50 was 750 nM.

In turn, `Oc1cc(-c2cccc(C(F)(F)F)c2)nc(Nc2ccc(Cl)c(Cl)c2)n1` came in with an XC50 of 759 nM.

The compound `CS(=O)(=O)Nc1ccc(-c2cnc3[nH]cc(-c4ccc(C(=O)O)cc4)c3c2)cc1` had an XC50 of 800 nM.

As to `CCN(CCO)Cc1ccc(-c2ccc(NS(=O)(=O)c3cccc4cccnc34)cc2)cc1`, the XC50 is 985 nM.

The compound `COc1c(C=NNc2nc(=Nc3ccccc3)[nH]c(=Nc3ccccc3)[nH]2)ccc(Br)c1O` had an XC50 of 720 nM.

Compound `COc1ccc2ncc(F)c(CCN3CC[C@H](NC(=O)c4ccc5c(n4)NC(=O)CS5)[C@H](O)C3)c2n1` displayed an XC50 of 947 nM.

`CC(C)(CNCc1cccc(Oc2cccc(C(F)(F)F)c2)c1)c1nc(-c2ccnc(N)n2)c(-c2ccc(Cl)c(O)c2)[nH]1` came in with an XC50 of 193 nM.

With `CSCCCN1CCC(O)(c2ccc3oc(C(=O)Nc4ccc5sc(C)nc5c4)cc3c2)CC1`, the XC50 came to 1070 nM.

The compound `O=C(Nc1cccc(CN2CCCN(Cc3ccsc3)CC2)c1)c1cc2ccccc2s1` displayed an XC50 of 758 nM.

The compound `COc1cccc(NC(=O)c2cc([N+](=O)[O-])ccc2NC(=O)CN2CCc3ccccc3C2)c1` registered an XC50 of 589 nM.

The compound `Cc1cc(N2CCCCC2)nc2ccc(NC(=O)c3cccc([N+](=O)[O-])c3)cc12` registered an XC50 of 378 nM.

`O=S(=O)(c1c(Cl)cccc1Cl)N1CCCCC(c2ccc(C(F)(F)F)cc2)=N1` registered an XC50 of 126 nM.

Take `COc1ccccc1NC(=O)Nc1cccc(-c2cccc(-c3nc4cc(C(F)(F)F)ccc4[nH]3)c2)c1`: the XC50 came to 120 nM.

For `C=CCN(C(=O)c1ccc(Cl)c([N+](=O)[O-])c1)c1nc(-c2ccccc2)cs1`, the XC50 stood at 398 nM.

In the case of `CN(C)Cc1cccc(-c2cnc(N)c(-c3nc4cc(S(C)(=O)=O)ccc4[nH]3)c2)c1`, the XC50 worked out at 887 nM.

As to `FC(F)(F)c1ccc2[nH]c(-c3ccc(-c4ccc(CN5CCN(c6ccncc6)CC5)cc4)s3)nc2c1`, the XC50 was 153 nM.

`CN(C(=O)Cc1ccc(Cl)c(Cl)c1)C1CCN(CCCCCNC(=O)/C=C/c2ccc(Cl)c(Cl)c2)CC1` had an XC50 of 739 nM.

As for `CC[C@H]1CN2CC[C@@H]1C[C@H]2[C@H](O)c1cc(N2CCC(C(N)=O)CC2)nc2ccc(OC)cc12`, the XC50 was 773 nM.

`COc1cccc(CNC[C@@H](O)[C@H](Cc2ccccc2)NC(=O)c2cc(N3CCCC3=O)c3[nH]cc(C(C)C)c3c2)c1` returned an XC50 of 529 nM.

Consider `COc1cc(Cc2cnc(N)nc2N)cc(OCCCN2C(=O)c3ccccc3C2=O)c1OC`, for which the XC50 is 985 nM.

As to `O=C(NC1CCC(CCN2Cc3cccc(F)c3C2)CC1)c1cccc(-c2cccnc2)c1` (centres undefined), the XC50 was 300 nM.

In turn, `O=C(CCC1CCCC1)N(Cc1ccc(-c2ccc(CNCCc3ccccn3)cc2)cc1)CC1CCCCN1` (centres undefined) showed an XC50 of 1150 nM.

Take `CC1CN(Cc2cccc(F)c2)CCN1c1ccc(NC(=O)c2cccs2)cc1` (centres undefined): the XC50 stood at 448 nM.

`O=C(NCc1ccco1)c1ccc(S(=O)(=O)c2ccc(Cl)cc2)cc1` showed an XC50 of 448 nM.

Compound `O=C(Nc1ccc(Oc2ccccc2)cc1)N[C@@H](Cc1ccc(O)cc1)C(=O)NC1CCN(Cc2ccc(O)c([N+](=O)[O-])c2)C1` (some centres undefined) registered an XC50 of 1510 nM.

Compound `CCC[C@@H]([C@@H](CC1CCCCC1)C(=O)N[C@H](C(=O)Nc1nccc(N)n1)C(C)(C)C)N(O)C=O` yielded an XC50 of 528 nM.

`c1cncc(-c2cccc(CNc3nccc(Nc4ccc(OCCN5CCOCC5)cc4)n3)c2)c1` came in with an XC50 of 1060 nM.

`CN(C)c1ccc(-c2nc3cc(N)ccc3[nH]2)cc1` came in with an XC50 of 239 nM.

On to `Cc1sc(C)c(CNCCCNc2cc(=O)c3ccccc3[nH]2)c1Br`, for which the XC50 was 878 nM.

In the case of `COc1cc(NC(=O)C(c2ccc(Cl)cc2)C(C)C)cc(OC)c1` (centres undefined), the XC50 worked out at 723 nM.

The compound `COc1ccccc1C(C)NCC(=O)Nc1cc(C(F)(F)F)ccc1Cl` (centres undefined) showed an XC50 of 778 nM.

With `COc1cc(-c2nc(-c3ccccc3)c(-c3ccccc3)[nH]2)cc(OC)c1O`, the XC50 was found to be 774 nM.

The compound `Cc1ccc(-c2nnc(-c3ccc(C(=O)NC4CCN(Cc5ccc(C#N)cc5)CC4)cc3)o2)cc1Br` showed an XC50 of 852 nM.

The compound `Cn1cnc2nc(NCCc3ccccc3)nc(NCc3cccc4ccccc34)c21` registered an XC50 of 327 nM.

Take `CN(C)CCN(C)Cc1ccc(-c2cccc(-c3nc4ccccc4[nH]3)c2)cc1`: the XC50 was found to be 751 nM.

Regarding `Cc1ccc(CNC(=O)c2cc3c(=O)n4cccc(C)c4nc3n(CCN3CCOCC3)c2=N)cc1`, the XC50 was 854 nM.

As to `CN1CCN(Cc2ccc(-c3cc4c(Nc5ccc(OCc6cccc(F)c6)c(Cl)c5)ncnc4s3)[nH]2)CC1`, the XC50 turned out to be 766 nM.

As to `CNC(=O)NC1=NC(C)(C)N(OCc2ccc(Cl)c(Cl)c2)C(NC(=O)NC)=N1`, the XC50 came out at 601 nM.

Consider `CN1CCC(c2ccc(NC(=O)c3ccc(-c4cccc(C(F)(F)F)c4)o3)cc2)CC1`, for which the XC50 amounted to 1130 nM.

In the case of `COc1ccc(C2C(C(=O)Nc3ccccc3)=C(C)Nc3c(C(=O)Nc4ccccc4)cnn32)cc1` (centres undefined), the XC50 stood at 1310 nM.

The compound `Cc1sc(NC(=O)Cc2cccc(C(F)(F)F)c2)nc1-c1cccc(Cl)c1` came in with an XC50 of 470 nM.
